pIC50: −log10 of the molar value.
Columns and labels:
[1] = target: T1, cyclin D1/cdk 4 enzyme (Homo sapiens, UniProt P11802); experiment: CDK4 ELISA kinase assay (phospho-Rb ser 795 detection); format: biochemical; settings: In Vitro Enzyme Assay, cyclin D1/cdk 4, read-out: CDK4 IC50
T1 construct: made in house; host or cells: Sf9 insect cells, recombinant baculovirus
Method in brief: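 Sf9-derived cyclin/CDK, 200 μM ATP, immobilized GST-Rb; 30° C/1 h. Detection: phospho-Ser795 Ab, HRP, TMB, OD450.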

[2] = tested on: BT474; experiment: Cytotoxicity assay (SRB), BT474; format: cell-based; settings: Homo sapiens, BT-474, 144 h, BT474 cells, 6 days, SRB; read-out: In Vitro Cellular Activity IC50 BT474
Experimental: (§1) BT474, HCT-116, LoVo and MCF-7 were maintained under 7% CO2 in RPMI 1640 medium supplemented with 10% fetal bovine serum and 50 µg/ml gentamicin.
(§2) Cells were plated in 96-well microtiter dishes (12000 cells/well for BT474, 4000 cells/well for HCT-116, 6000 cells/well for LoVo and 6000 cells/well for MCF-7) in RPMI 1640 medium containing 5% fetal bovine serum and 50 µg/ml gentamicin. The cells were allowed to incubate overnight at 37° C., 7% CO2. Compound dilutions were prepared using the same medium. HCT-116, LoVo and MCF-7 cells were cultured for three days and BT474 cells were cultured for 6 days, in the presence of each compound dilution. Untreated cells were included as controls. The percentage of surviving cells was determined using a protein binding dye (sulforhodamineB, SRB) assay. Cellular protein was precipitated in each well by the addition of 0.05 ml of 50% cold trichloroacetic acid (TCA). After 1 hour, the plates were washed extensively in dH2O and dried. The sulforhodamineB dye solution (0.08 mL of 0.4% SRB in 1% acetic acid) was added to each well, kept at room temperature for ten minutes, then washed in 1% acetic acid and dried. The dye was dissolved in 10 mM Tris-HCl (150 uL) and the absorbency read at 540 nm.

[3] = tested on: HCT-116; experiment: Cytotoxicity assay (SRB), HCT-116; format: cell-based; settings: Homo sapiens, HCT-116, 72 h, HCT116 cells, 3 days, SRB; read-out: In Vitro Cellular Activity IC50 HCT116
Experimental: as §1, §2

[4] = tested on: LoVo; experiment: Cytotoxicity assay (SRB), LoVo; format: cell-based; settings: Homo sapiens, LoVo, 72 h, LoVo cells, 3 days, SRB; read-out: In Vitro Cellular Activity IC50 LOVO
Experimental: as §1, §2

[5] = tested on: MCF-7; experiment: Cytotoxicity assay (SRB), MCF-7; format: cell-based; settings: Homo sapiens, MCF7, 72 h, MCF-7 cells, 3 days, SRB; read-out: In Vitro Cellular Activity IC50 MCF-7
Experimental: as §1, §2

T1 sequence (P11802 whole entry, species assumed): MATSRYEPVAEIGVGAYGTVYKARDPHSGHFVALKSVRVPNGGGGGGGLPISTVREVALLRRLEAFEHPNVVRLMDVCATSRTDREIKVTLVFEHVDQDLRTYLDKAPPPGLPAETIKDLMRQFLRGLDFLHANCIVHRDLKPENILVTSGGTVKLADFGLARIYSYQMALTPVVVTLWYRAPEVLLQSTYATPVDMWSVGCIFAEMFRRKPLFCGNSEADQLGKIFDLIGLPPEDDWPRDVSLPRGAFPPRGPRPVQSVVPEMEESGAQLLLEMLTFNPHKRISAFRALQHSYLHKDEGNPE
T1 sequence (P24385 whole entry partner, species assumed): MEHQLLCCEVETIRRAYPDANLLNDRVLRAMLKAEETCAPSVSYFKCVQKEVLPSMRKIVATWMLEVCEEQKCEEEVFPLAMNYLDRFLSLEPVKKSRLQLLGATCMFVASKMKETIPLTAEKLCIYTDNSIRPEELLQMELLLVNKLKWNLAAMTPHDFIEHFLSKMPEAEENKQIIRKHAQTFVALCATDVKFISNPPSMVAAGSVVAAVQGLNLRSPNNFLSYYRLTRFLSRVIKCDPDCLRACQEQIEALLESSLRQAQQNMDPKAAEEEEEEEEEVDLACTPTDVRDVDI

SMILES | pIC50 [1] | pIC50 [2] | pIC50 [3] | pIC50 [4] | pIC50 [5]
CN1CCN(c2ccc(NC=C3C(=O)NC(=O)c4ccc(-c5cccc(C=CC(=O)O)c5)cc43)cc2)CC1 [Example 699, 3-[3-(4-{[4-(4-Methyl-piperazin-1-yl)-phenylamino]-methylene}-1,3-dioxo-1,2,3,4-tetrahydro-isoquinolin-6-yl)-phenyl]-acrylic acid] | 5.54 | < 4.30 | 4.64 | < 4.30 | < 4.30
Cc1cccc(-c2ccc3c(c2)C(=CNc2ccc(CC#N)cc2)C(=O)NC3=O)c1 [Example 716, {4-[(1,3-Dioxo-6-m-tolyl-2,3-dihydro-1H-isoquinolin-4-ylidenemethyl)-amino]-phenyl}-acetonitrile] | 5.03 | < 4.30 | < 4.30 | < 4.30 | 4.57
NS(=O)(=O)c1ccc(CNC=C2C(=O)NC(=O)c3ccc(-c4ccccc4Cl)cc32)cc1 [Example 751, 4-({[6-(2-Chloro-phenyl)-1,3-dioxo-2,3-dihydro-1H-isoquinolin-4-ylidenemethyl]-amino}-methyl)-benzenesulfonamide] | 5.60 | 5.15 | 5.20 | 5.00 | 5.09
NS(=O)(=O)c1ccc(CNC=C2C(=O)NC(=O)c3ccc(C=Cc4ccccn4)cc32)cc1 [Example 652, 4-({[1,3-Dioxo-6-(2-pyridin-2-yl-vinyl)-2,3-dihydro-1H-isoquinolin-4-ylidenemethyl]-amino}-methyl)-benzenesulfonamide] | 5.62 | 4.55 | < 4.30 | < 4.30 | 4.57
NS(=O)(=O)c1ccc(CNC=C2C(=O)NC(=O)c3ccc(-c4ccc5ccccc5c4)cc32)cc1 [Example 632, 4-{[(6-Naphthalen-2-yl-1,3-dioxo-2,3-dihydro-1H-isoquinolin-4-ylidenemethyl)-amino]-methyl}-benzenesulfonamide] | 5.51 | < 4.30 | < 4.30 | 4.35 | 4.76
CN1CCN(c2ccc(NC=C3C(=O)NC(=O)c4ccc(-c5ccc(Cl)cc5)cc43)cc2)CC1 [Example 689, 6-(4-Chloro-phenyl)-4-{[4-(4-methyl-piperazin-1-yl)-phenylamino]-methylene}-4H-isoquinoline-1,3-dione] | 5.33 | 5.47 | 5.52 | 5.17 | 5.42
N#CCc1ccc(NC=C2C(=O)NC(=O)c3ccc(-c4ccccc4Cl)cc32)cc1 [Example 714, (4-{[6-(2-Chloro-phenyl)-1,3-dioxo-2,3-dihydro-1H-isoquinolin-4-ylidenemethyl]-amino}-phenyl)-acetonitrile] | 5.26 | < 4.30 | < 4.30 | < 4.30 | 4.51
COc1cccc(-c2ccc3c(c2)C(=CNCc2ccc(S(N)(=O)=O)cc2)C(=O)NC3=O)c1 [Example 737, 4-({[6-(3-Methoxy-phenyl)-1,3-dioxo-2,3-dihydro-1H-isoquinolin-4-ylidenemethyl]-amino}-methyl)-benzenesulfonamide] | 5.22 | < 4.30 | 4.75 | 4.82 | 4.90
CN1CCN(c2ccc(NC=C3C(=O)NC(=O)c4ccc(C=Cc5ccc(C(F)(F)F)cc5)cc43)cc2)CC1 [Example 729, 4-{[4-(4-Methyl-piperazin-1-yl)-phenylamino]-methylene}-6-[2-(4-trifluoromethyl-phenyl)-vinyl]-4H-isoquinoline-1,3-dione] | 4.96 | 5.33 | 5.85 | 4.75 | 5.68
NS(=O)(=O)c1ccc(CNC=C2C(=O)NC(=O)c3ccc(C=CC4CCCCC4)cc32)cc1 [Example 656, 4-({[6-(2-Cyclohexyl-vinyl)-1,3-dioxo-2,3-dihydro-1H-isoquinolin-4-ylidenemethyl]-amino}-methyl)-benzenesulfonamide] | 5.32 | 4.87 | 4.90 | 4.93 | 4.91
COc1ccc(-c2ccc3c(c2)C(=CNc2ccc(N4CCN(C)CC4)cc2)C(=O)NC3=O)cc1 [Example 682, 6-(4-Methoxy-phenyl)-4-{[4-(4-methyl-piperazin-1-yl)-phenylamino]-methylene}-4H-isoquinoline-1,3-dione] | 5.47 | 5.60 | 5.82 | 5.28 | 5.36
N=C(N)c1ccc(NC=C2C(=O)NCc3cc(Cl)ccc32)cc1 [Example 857, 4-[(7-Chloro-3-oxo-2,3-dihydro-1H-isoquinolin-4-ylidenemethyl)-amino]-benzamidine] | 4.73 | 4.62 | 4.37 | < 4.30 | < 4.30
CN1CCN(c2ccc(NC=C3C(=O)NC(=O)c4ccc(-c5cc6ccccc6o5)cc43)cc2)CC1 [Example 669, 6-Benzofuran-2-yl-4-{[4-(4-methyl-piperazin-1-yl)-phenylamino]-methylene}-4H-isoquinoline-1,3-dione] | 5.02 | 5.70 | 5.54 | 4.69 | 5.54
NS(=O)(=O)c1ccc(CNC=C2C(=O)NC(=O)c3ccc(-c4cc5ccccc5o4)cc32)cc1 [Example 634, 4-{[(6-Benzofuran-2-yl-1,3-dioxo-2,3-dihydro-1H-isoquinolin-4-ylidenemethyl)-amino]-methyl}-benzenesulfonamide] | 5.00 | 4.32 | 4.72 | 5.07 | < 4.30
O=C1NC(=O)c2ccc(C=Cc3ccc4ccccc4c3)cc2C1=CNCc1ccc(O)c(O)c1 [Example 661, 4-[(3,4-Dihydroxy-benzylamino)-methylene]-6-(2-naphthalen-2-yl-vinyl)-4H-isoquinoline-1,3-dione] | 5.26 | 4.43 | < 4.30 | < 4.30 | 4.43
CN1CCN(c2ccc(NC=C3C(=O)NC(=O)c4ccc(C=Cc5ccc(N)cc5)cc43)cc2)CC1 [Example 725, 6-[2-(4-Amino-phenyl)-vinyl]-4-{[4-(4-methyl-piperazin-1-yl)-phenylamino]-methylene}-4H-isoquinoline-1,3-dione] | 5.54 | 4.71 | 5.10 | 4.52 | 4.53
CN1CCN(c2ccc(NC=C3C(=O)NC(=O)c4ccc(C=CC(O)CO)cc43)cc2)CC1 (stereo not drawn) [Example 730, 6-(3,4-Dihydroxy-but-1-enyl)-4-{[4-(4-methyl-piperazin-1-yl)-phenylamino]-methylene}-4H-isoquinoline-1,3-dione] | 5.60 | 4.69 | 4.77 | 4.54 | 4.39
N#CCc1ccc(NC=C2C(=O)NC(=O)c3ccc(-c4ccccc4F)cc32)cc1 [Example 706, (4-{[6-(2-Fluoro-phenyl)-1,3-dioxo-2,3-dihydro-1H-isoquinolin-4-ylidenemethyl]-amino}-phenyl)-acetonitrile] | 5.14 | < 4.30 | < 4.30 | < 4.30 | 4.39

Source: patent US7713994B2 (Wyeth LLC, priority 2005, dated 2010)
